Read-outs that look alike come from different tables or passages of the source.
Experiments:
rats [1] = assay: Anorexia-inducing action, food consumption of female SJ (Janvier) rats; format: in vivo; conditions: for ED50: Rattus norvegicus, female SJ (Janvier) rats, oral, 1 hour before distribution of food
Protocol: (§1) The experiment was carried out by administering each compound orally at several doses to batches of 8 animals per dose, 1 hour before the distribution of the food, and graphically determining the 50% active doses (AD 50 = dose capable of reducing the food consumption by 50%).

rats [2] = assay: Anorexia-inducing action, food consumption of male Charles River rats, 1 hour and 6 hours after administration; format: in vivo; conditions: Rattus norvegicus, oral
Protocol: as §1
The AD 50 (i.e. the dose which reduces food consumption by 50% compared with untreated controls) was also determined, in the same way as that described above, on male `Charles River` rats, 1 hour and 6 hours after administration of the compounds under test.

[3] = Acute toxicity (50% lethal dose, determined graphically); format: in vivo, mice (CDl); conditions: mouse, in vivo, CDl mice
Protocol: (§2) Acute toxicity: the experiments were carried out on CDl mice of average weight 20 g. The 50% lethal dose (LD 50) was determined graphically.

CDl mice = assay: as above; format: in vivo
Protocol: as §2

CD1 mice = assay: Conventional actimetry test (motility); format: in vivo
[4] = 2nd series, read-out: Anorexia-inducing action AD 50, administered orally, 2nd series
[5] = after 1 hour, read-out: Anorexia-inducing Action AD 50 orally after 1 hour
[6] = after 6 hours, read-out: Anorexia-inducing Action AD 50 orally after 6 hours
[7] = intravenous, read-out: Acute toxicity LD 50, intravenous administration
[8] = oral, read-out: Acute toxicity LD 50, oral administration
[9] = 1st series, read-out: Anorexia-inducing action AD 50, administered orally, 1st series

Compound: Fc1ccc(N2CCNCC2)cc1C(F)(F)F [SLC-001, 1-(4-fluoro-3-trifluoromethyl-phenyl)-piperazine, reference compound]
- ED50 (rats [1]; [4]): 2.2 mg/kg
- ED50 (rats [2]; [5]): 2 mg/kg
- ED50 (rats [2]; [6]): > 6 mg/kg
- LD50 [3, 7]: 59 mg/kg
- LD50 [3, 8]: 150 mg/kg

Compound: Fc1ccc(N2CCNCC2)cc1SC(F)(F)F [SLC-298, 1-(4-fluoro-3-trifluoromethylthiophenyl)-piperazine]
- ED50 (rats [1]; [9]): 1.5 mg/kg
- ED50 (rats [1]; [4]): 1.8 mg/kg
- anorexia-inducing activity compared with the reference compounds (rats [1]; overall conclusion from Tables I and II): more active as an anorexia-inducing agent than the reference compounds
- ED50 (rats [2]; [5]): 1.9 mg/kg
- ED50 (rats [2]; [6]): 2.7 mg/kg
- LD50 [3, 7]: 60 mg/kg
- LD50 [3, 8]: 150 mg/kg
- toxicity (CDl mice; overall conclusion): moderate
- therapeutic index (CDl mice; overall conclusion from LD 50 and AD 50): high
- motor activity at higher doses (CD1 mice; CD1 mice, 20 mg/kg): reduces the motor activity
- motility at a low dose (CD1 mice; CD1 mice, up to 5 mg/kg): only very slightly increases the motility
- stimulant effect (CD1 mice; overall conclusion): little or no stimulant effect

Compound: CCNC(C)Cc1cccc(C(F)(F)F)c1 (stereo not shown) [Fenfluramine, reference compound]
- ED50 (rats [1]; [9]): 5 mg/kg
- ED50 (rats [2]; [5]): 1.4 mg/kg
- ED50 (rats [2]; [6]): 4 mg/kg
- LD50 [3, 7]: 42 mg/kg
- LD50 [3, 8]: 195 mg/kg

From patent US4044132A, “Substituted piperazine derivative, its preparation and anorexia compositions containing it” (Synthelabo, priority 1975, dated 1977)
